Values joined by “and” are separate entries in the source; they are usually repeats but may differ in a detail not shown here. Equal values may be shown once. Read-outs that look alike come from different tables or passages of the source.
Legend:
human TNF = assay: TNF inhibition: human whole blood assay; format: cell-based; details: Homo sapiens, LPS, read-out: TNF Inhibition-Human Whole Blood Assay
TNF-α = assay: Rat assay: LPS-challenged rats, serum TNF-α by ELISA; format: in vivo; details: Rattus norvegicus, po; for inhibition in vivo at 3 mg/kg: Table 8, dose 3.0 mg/kg; for inhibition in vivo at 3 mg/kg / inhibition in vivo at 5 mg/kg: read-out: Rat LPS Assay % Inhibition
[1] = target: T1, human GST-p38 kinase alpha (Homo sapiens, UniProt Q16539); assay: p38 kinase in vitro assay, second format, phosphorylation of EGFRP with 33P-ATP; format: biochemical; details: read-out: p38α Kinase Assay IC50
T1 construct: The coding region of the human p38a cDNA was obtained by PCR-amplification from RNA isolated from the human monocyte cell line THP.1; made in house; host or cells: E. coli DH10B
Method in brief: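 Activated human GST-p38α (pre-activated with GST-MKK6, 1 h, 30 °C) phosphorylates EGFR 21-mer peptide (200 μM) with 50 μM ATP plus γ-33P-ATP, pH 7.5, 60 min at room temperature. Unreacted ATP removed by AG 1×8 resin; supernatant scintillation-counted.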

T1 sequence (Q16539 whole entry): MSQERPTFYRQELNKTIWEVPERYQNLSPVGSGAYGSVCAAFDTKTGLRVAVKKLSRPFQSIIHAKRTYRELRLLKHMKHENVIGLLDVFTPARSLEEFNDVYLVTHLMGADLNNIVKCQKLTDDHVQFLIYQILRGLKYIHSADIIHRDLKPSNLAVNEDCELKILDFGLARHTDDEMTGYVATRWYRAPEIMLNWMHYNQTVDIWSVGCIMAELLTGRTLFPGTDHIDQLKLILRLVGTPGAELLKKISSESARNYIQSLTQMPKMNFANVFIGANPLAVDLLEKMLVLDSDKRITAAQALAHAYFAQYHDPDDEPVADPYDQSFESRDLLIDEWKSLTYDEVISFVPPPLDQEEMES

Row | Compound | melting point | IC50 (human TNF; Table 10, human whole blood) [µM] | IC50 ([1]; Table 10, 10% DMSO, @ 1.0 hour) [nM] | inhibition in vivo at 5 mg/kg (TNF-α; Table 10, dose 5.0 mg/kg) [%] | also measured
1 | Clc1ccc(-c2n[nH]c(N3CCN(C4CC4)CC3)c2-c2ccncc2)cc1 [Example A-322, 1-[5-(4-chlorophenyl)-4-(4-pyridinyl)-1H-pyrazol-3-yl)-4-cyclopropylpiperazine] | 264 to 265 °C |  |  |  | IC50 (human TNF; Table 8, human whole blood): 4.2 µM; inhibition in vivo at 3 mg/kg (TNF-α): 51.5%; IC50 ([1]; Table 8, 10% DMSO): 150 nM and 250 nM
2 | Fc1ccc(-c2[nH]ncc2-c2ccnc(Nc3ccccc3F)n2)cc1 [Example A-325, N-(2-fluorophenyl)-4-[3-(4-fluorophenyl)-1H-pyrazol-4-yl]-2-pyrimidinamine] | 239 to 240 °C |  |  |  | IC50 (human TNF; Table 8, human whole blood): 0.057 µM; inhibition in vivo at 3 mg/kg (TNF-α): 25%; inhibition in vivo at 30 mg/kg (TNF-α; Table 8, dose 30.0 mg/kg): 11%; IC50 ([1]; Table 8, 10% DMSO): < 100 nM
3 | COc1ccccc1Nc1nccc(-c2cn[nH]c2-c2ccc(F)cc2)n1 [Example A-326, 4-[3-(4-fluorophenyl)-1H-pyrazol-4-yl]-N-(2-methoxyphenyl)-2-pyrimidinamine] | 265 °C (dec.) |  |  |  | IC50 (human TNF; Table 8, human whole blood): > 25 µM; inhibition in vivo at 10 mg/kg (TNF-α; Table 8, dose 10.0 mg/kg): 0%; IC50 ([1]; Table 8, 10% DMSO): 970 nM
4 | CN1CCN(c2n[nH]c(-c3cccc(Cl)c3)c2-c2ccncc2)CC1 [Example A-327, 1-[5-(3-chlorophenyl)-4-(4-pyridinyl)-1-H-pyrazol-3-yl]-4-methylpiperazine] | 229 to 231 °C |  |  |  | IC50 (human TNF; Table 8, human whole blood): 0.18 µM; inhibition in vivo at 20 mg/kg (TNF-α; Table 8, dose 20.0 mg/kg): 83%; IC50 ([1]; Table 8, 10% DMSO): 150 nM
5 | C#CCN1CCN(c2n[nH]c(-c3ccc(Cl)cc3)c2-c2ccncc2)CC1 [Example A-333, 1-[5-(4-chlorophenyl)-4-(4-pyridinyl)-1H-pyrazol-3-yl]-4-(2-propynyl)piperazine] | 247 °C (dec.) |  |  |  | IC50 (human TNF; Table 8, human whole blood): 0.585 µM; inhibition in vivo at 5 mg/kg (TNF-α; Table 8, dose 5.0 mg/kg): 69%; IC50 ([1]; Table 8, 10% DMSO): 52 nM
6 | O=C(C(=C1SCS1)c1ccncc1)c1ccc(Cl)cc1 [Example A-390] | 185.3 to 185.4 °C | > 25 | 15100 |  | 
7 | CC(C)(C)c1ccc(C(=O)C(=C2SCS2)c2ccncc2)cc1 [Example A-398] | 172.1 to 173.1 °C | > 25 | 45600 |  | 
8 | Cc1ccc(C(=O)C(=C2SCS2)c2ccncc2)cc1 [Example A-400] | 209.1 to 215.1 °C | > 25 | 4770 |  | 
9 | C=Cc1ccc(C(=O)C(=C2SCS2)c2ccncc2)cc1 [Example A-403] | 176.6 to 176.7 °C | > 25 | 4890 |  | 
10 | CCc1ccc(C(=O)C(=C2SCS2)c2ccncc2)cc1 [Example A-404] | 174.8 to 175 °C | > 25 | 4130 |  | 
11 | Cc1cc(C(=O)C(=C2SCS2)c2ccncc2)ccc1Br [Example A-405] | 167.1 to 167.5 °C | > 25 | 4850 |  | 
12 | N#Cc1cccc(C(=O)C(=C2SCS2)c2ccncc2)c1 [Example A-406] | 168.6 to 168.7 °C | > 25 | 7240 |  | 
13 | Cc1ccc(-c2n[nH]c(N3CCN(C)CC3)c2-c2ccncc2)cc1C [Example A-410, 1-[5-(3,4-dimethylphenyl)-4-(4-pyridinyl)-1H-pyrazol-3-yl]-4-methylpiperazine] | 270.9 to 272.7 °C |  | 210 | 11 | inhibition in vivo at 20 mg/kg (TNF-α; Table 10, dose 20.0 mg/kg): 0%
14 | CN1CCN(c2[nH]nc(-c3ccc(OC(F)(F)F)cc3)c2-c2ccncc2)CC1 [Example A-411, 1-[5-(4-trifluoromethoxyphenyl)-4-(4-pyridinyl)-1H-pyrazol-3-yl]-4-methylpiperazine] | 221 to 221.2 °C |  | 3370 | 40 | inhibition in vivo at 20 mg/kg (TNF-α; Table 10, dose 20.0 mg/kg): 0%
15 | CN1CCN(c2n[nH]c(-c3ccc(C#N)cc3)c2-c2ccncc2)CC1 [Example A-412, 1-[5-(4-cyanophenyl)-4-(4-pyridinyl)-1H-pyrazol-3-yl]-4-methylpiperazine] | > 300 °C |  | 2150 | 0 | inhibition in vivo at 20 mg/kg (TNF-α; Table 10, dose 20.0 mg/kg): 0%
16 | COc1ccc(-c2n[nH]c(N3CCN(C)CC3)c2-c2ccncc2)cc1 [Example A-415] | 259 to 260.2 °C | 0.51 |  | 17 | inhibition in vivo at 84 mg/kg (TNF-α; Table 10, dose […]): 84%
17 | Cc1ccc(-c2[nH]nc(N3CCN(C)CC3)c2-c2ccncc2)cc1 [Example A-416, 1-[5-(4-methylphenyl)-4-(4-pyridinyl)-1H-pyrazol-3-yl]-4-methylpiperazine] | 243 to 246.8 °C | 5.07 | 41 |  | 
18 | CCc1ccc(-c2[nH]nc(N3CCN(C)CC3)c2-c2ccncc2)cc1 [Example A-419, 1-[5-(4-ethylphenyl)-4-(4-pyridinyl)-1H-pyrazol-3-yl]-4-methylpiperazine] | 221.6 to 222.6 °C |  | 1310 | 24 | inhibition in vivo at 10 mg/kg (TNF-α; Table 10, dose 10.0 mg/kg): 58%
19 | Cc1cc(-c2[nH]nc(N3CCN(C)CC3)c2-c2ccncc2)ccc1Br [Example A-420, 1-[5-(4-bromo-3-methylphenyl)-4-(4-pyrdinyl)-1H-pyrazol-3-yl]-4-methylpiperazine] | 294.7 °C (dec.) |  | 320 | 47 | inhibition in vivo at 20 mg/kg (TNF-α; Table 10, dose 20.0 mg/kg): 91%

From patent US6525059B1, “Substituted pyrazoles as p38 kinase inhibitors” (G. D. Searle & Company, priority 1998, dated 2003)
